Measurements reported in patent publication US6319702A, “Nucleic acids encoding mutant human carboxypeptidase A enzymes” (Glaxo Wellcome, Inc., priority 1993, dated 2001).
Like-named read-outs stand apart in the source and are kept apart here.

Assay: Stability and biodistribution of prodrugs in vivo (HPLC of plasma and tissues)
Set-up: species or system mice (CD-1 nude; BALB/C where indicated)
Conditions: 50 mg/kg i.p. or i.v., CD-1 nude mice; for remaining at 0.5 h / remaining at 2 h / concentration at 0.5 h / concentration at 2 h: mouse, 50 mg/kg; for concentration at 0.5 h / concentration at 2 h: read-out: concentration of prodrug in plasma
[1] = cecum, CECUM, 30 min, read-out: stability: percentage of material observed as intact prodrug, cecum
[2] = cecum, CECUM, 120 min, read-out: stability: percentage of material observed as intact prodrug, cecum
[3] = kidney, KIDNEY, 30 min, read-out: stability: percentage of material observed as intact prodrug, kidney
[4] = kidney, KIDNEY, 120 min, read-out: stability: percentage of material observed as intact prodrug, kidney
[5] = large intestine, LARGE INTESTINE, 30 min, read-out: stability: percentage of material observed as intact prodrug, large intestine
[6] = large intestine, LARGE INTESTINE, 120 min, read-out: stability: percentage of material observed as intact prodrug, large intestine
[7] = liver, LIVER, 30 min, read-out: stability: percentage of material observed as intact prodrug, liver (converted)
[8] = liver, LIVER, 120 min, read-out: stability: percentage of material observed as intact prodrug, liver
[9] = plasma, PLASMA, 30 min, read-out: stability: percentage of material observed as intact prodrug, plasma
[10] = plasma, PLASMA, 120 min, read-out: stability: percentage of material observed as intact prodrug, plasma
[11] = small intestine, SMALL INTESTINE, 30 min, read-out: stability: percentage of material observed as intact prodrug, small intestine
[12] = small intestine, SMALL INTESTINE, 120 min, read-out: stability: percentage of material observed as intact prodrug, small intestine
[13] = spleen, SPLEEN, 30 min, read-out: stability: percentage of material observed as intact prodrug, spleen
[14] = spleen, SPLEEN, 120 min, read-out: stability: percentage of material observed as intact prodrug, spleen
[15] = tumor, TUMOR, 30 min, read-out: stability: percentage of material observed as intact prodrug, tumor
[16] = tumor, TUMOR, 120 min, read-out: stability: percentage of material observed as intact prodrug, tumor

Structure (SMILES)	concentration of prodrug in cecum (CECUM, 30 min) [nmol/g]	concentration of prodrug in cecum (CECUM, 120 min) [nmol/g]	concentration of prodrug in kidney (KIDNEY, 30 min) [nmol/g]	concentration of prodrug in kidney (KIDNEY, 120 min) [nmol/g]	concentration of prodrug in large intestine (LARGE INTESTINE, 30 min) [nmol/g]	concentration of prodrug in large intestine (LARGE INTESTINE, 120 min) [nmol/g]	concentration of prodrug in liver (LIVER, 30 min) [nmol/g]	concentration of prodrug in liver (LIVER, 120 min) [nmol/g]	concentration of prodrug in small intestine (SMALL INTESTINE, 30 min) [nmol/g]	concentration of prodrug in small intestine (SMALL INTESTINE, 120 min) [nmol/g]	concentration of prodrug in spleen (SPLEEN, 30 min) [nmol/g]	concentration of prodrug in tumor (TUMOR, 30 min) [nmol/g]	concentration of prodrug in tumor (TUMOR, 120 min) [nmol/g]	remaining at 0.5 h [1] [%]	remaining at 2 h [2] [%]	remaining at 0.5 h [3] [%]	remaining at 2 h [4] [%]	remaining at 0.5 h [5] [%]	remaining at 2 h [6] [%]	remaining at 0.5 h [7] [%]	other results
Cc1nc2ccc3ccc(CNc4ccc(C(=O)N[C@@H](CCC(=O)O)C(=O)N[C@@H](CCC(=O)O)C(=O)O)c(F)c4)cc3c2c(=O)[nH]1 [Prodrug 1, N-(N-(4(((1,2-dihydro-3-methyl-1-oxobenzo(F)quinazolin-9-yl)methyl)amino)-2-fluorobenzoyl)-L-glutam-1-yl)-L-glutamic acid]	6.0	1.2	175.8	70.3	12.2	1.0	770.3	579.8	48.2	55.6	23.4	6.0	1.2	96	76	98	97	93	100	98	concentration of prodrug in spleen (SPLEEN, 120 min): 1.8 nmol/g; remaining at 2 h [8]: 97%; concentration at 0.5 h (plasma, PLASMA, 30 min): 41.5 µM; remaining at 0.5 h [9]: 99%; concentration at 2 h (plasma, PLASMA, 120 min): 4.2 µM; remaining at 2 h [10]: 100%; remaining at 0.5 h [11]: 83%; remaining at 2 h [12]: 68%; remaining at 0.5 h [13]: 100%; remaining at 2 h [14]: 100%; remaining at 0.5 h [15]: 96%; remaining at 2 h [16]: 76%
Cc1nc2ccc3ccc(CNc4ccc(C(=O)N[C@@H](CCC(=O)O)C(=O)N[C@@H](Cc5ccccc5C(=O)O)C(=O)O)c(F)c4)cc3c2c(=O)[nH]1 [Prodrug 4, N-(N-(4(((1,2-dihydro-3-methyl-1-oxobenzo(F)quinazolin-9-yl)methyl)amino)-2-fluorobenzoyl)-L-glutam-1-yl)-2-carboxy-L-phenylanine]	6.7	1.3	94.5	14.5	25.3	45.4	343.4	33.3	188.1	69.1	30.9	6.7	1.3	100	100	100	99	100	100	99	remaining at 2 h [8]: 98%; concentration at 0.5 h (plasma, PLASMA, 30 min): 71.4 µM; remaining at 0.5 h [9]: 100%; concentration at 2 h (plasma, PLASMA, 120 min): 1.4 µM; remaining at 2 h [10]: 99%; remaining at 0.5 h [11]: 99%; remaining at 2 h [12]: 98%; remaining at 0.5 h [13]: 99%; remaining at 0.5 h [15]: 100%; remaining at 2 h [16]: 100%
CN(Cc1cnc2nc(N)nc(N)c2n1)c1ccc(C(=O)N[C@@H](CCC(=O)O)C(=O)N[C@@H](Cc2ccccc2C(=O)O)C(=O)O)cc1 [Prodrug 7]	6.9	1.5	55.4	3.8	12.1	91.8	171.9	7.5	127.4	24.1	12.4	6.9	1.5	100	100	100	100	100	100	100	concentration of prodrug in spleen (SPLEEN, 120 min): 1.0 nmol/g; remaining at 2 h [8]: 89%; concentration at 0.5 h (plasma, PLASMA, 30 min): 51.4 µM; remaining at 0.5 h [9]: 100%; concentration at 2 h (plasma, PLASMA, 120 min): 0.2 µM; remaining at 2 h [10]: 100%; remaining at 0.5 h [11]: 100%; remaining at 2 h [12]: 97%; remaining at 0.5 h [13]: 100%; remaining at 2 h [14]: 100%; remaining at 0.5 h [15]: 100%; remaining at 2 h [16]: 100%
